Measured values taken from patent publication EP4800013A1, “PARG INHIBITOR” (Shanghai Qilu Pharmaceutical Research and Development …, priority 2023, dated 2025).

Assays:
[1] = Pharmacokinetic evaluation in BALB/c nude mice (PO); format: in vivo; conditions: female, mouse, plasma, 30 mg/kg
Protocol: Using mice as test animals, the compounds of the present disclosure were administered via intravenous bolus and oral injection. Plasma samples were collected at specific time points. Compound concentrations in plasma were determined by LC-MS/MS, and PK parameters were calculated to characterize the pharmacokinetic behavior of the compounds of the present disclosure in plasma.
BALB/c nude mice, female, supplied by Jiangsu GemPharmatech Co., Ltd.
Dosing regimen for BALB/c nude mice: The PO (oral) experimental group consisted of 3 mice, which were administered at a dose of 30 mg/kg and a volume of 10 mL/kg. The dosing vehicle was 5% (v/v) DMSO/10% (v/v) Solutol/85% (v/v) saline.
Following administration, 0.025 mL of blood was collected via venipuncture at the following time points: 0.0833 (IV), 0.25, 0.5, 1, 2, 4, 8, and 24 hours. Blood samples were collected into EDTA-K2 tubes and centrifuged at 4°C and 2000 g for 10 minutes to separate plasma, which was stored at -80°C.
Mouse plasma processing: • 1) 15 µL of plasma was mixed with 200 µL of acetonitrile for protein precipitation. The mixture was vortexed and centrifuged for 15 minutes. • 2) The supernatant after processing was diluted with water and analyzed by LC/MS/MS to determine the concentration of the test compound.
Pharmacokinetic parameters were calculated using WinNonlin 6.1. Specifically, Cmax represents maximum plasma concentration, CL represents clearance, Vss represents volume of distribution at steady state, T1/2 represents terminal elimination half-life, MRTInf represents mean residence time, AUC represents area under the plasma concentration-time curve, and F represents bioavailability. Table 18: Pharmacokinetic parameters of the compounds of the present disclosure in CD-1 mice

[2] = target: T1, PXR (Homo sapiens, UniProt O75469); assay: PXR activation in stably transfected DPX2 cells (CYP3A4 promoter-driven luciferase reporter); format: cell-based; conditions: 24 or 48 hours, test concentration not given
T1 construct: host or cells: DPX2 (HepG2 stably transfected)
T1 sequence (O75469 1-434): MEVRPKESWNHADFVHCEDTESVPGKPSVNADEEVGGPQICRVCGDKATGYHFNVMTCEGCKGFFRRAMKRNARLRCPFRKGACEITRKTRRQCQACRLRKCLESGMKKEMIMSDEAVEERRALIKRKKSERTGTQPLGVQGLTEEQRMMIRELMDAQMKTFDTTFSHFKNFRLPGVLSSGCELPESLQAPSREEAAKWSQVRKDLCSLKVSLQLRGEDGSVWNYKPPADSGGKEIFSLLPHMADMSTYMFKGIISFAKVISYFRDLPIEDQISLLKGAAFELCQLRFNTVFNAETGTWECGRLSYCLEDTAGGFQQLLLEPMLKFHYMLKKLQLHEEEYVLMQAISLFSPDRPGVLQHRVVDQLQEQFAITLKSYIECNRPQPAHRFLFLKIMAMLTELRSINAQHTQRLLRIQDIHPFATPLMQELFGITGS
Protocol: The purpose of this study was to evaluate the potential of the compounds of the present disclosure and the comparative compound (WO2023183850A1, compound of formula A) to activate PXR in vitro, thereby inducing drug-metabolizing enzymes.
DPX2 cells (HepG2 cell line stably transfected with PXR and a CYP3A4 promoter-driven luciferase reporter gene) were purchased from Puracyp Inc (Carlsbad, CA). Fetal bovine serum was purchased from Acantor.
• 1) DPX2 cells were cultured in medium containing 10% fetal bovine serum (FBS). • 2) DPX2 cells were cultured in a T-75 flask in a cell culture incubator at 37°C with 5% CO2 and 95% relative humidity. The cells were subjected to trypsinization when they reached 80% to 90% confluence. • 3) The medium was aspirated from the T-75 flask, and the cells were rinsed with 10 mL of PBS. After removing PBS, 3 to 5 mL of trypsin was added. The flask was incubated at 37°C for approximately 5 minutes or until cell detachment and floating were observed. […] After 24 or 48 hours of cell treatment, quantification of PXR activation was performed. • 8) CellTiter Fluor™ Cell Viability Assay Kit and One-Glo Luciferase Assay Kit were equilibrated to room temperature. […] 25 µL of the prepared cell viability assay system was gently added to each well, followed by incubation for 30 minutes in the cell culture incubator at 37°C. • 10) The 384-well plate was removed from the cell culture incubator, and fluorescence of individual wells was measured using a microplate reader in fluorescence mode with excitation at 400 nm and emission at 505 nm. Subsequently, 25 µL of the prepared luciferase assay system was gently added to each well, followed by vortexing and incubation at room temperature for 5 minutes, and luminescence of individual wells was measured using a microplate reader.
Cell viability percentage was calculated using the following formula: Cell viability (%) = Isample / Ivehicle × 100, where Isample is the mean fluorescence intensity of treated wells; Ivehicle is the mean fluorescence intensity of cells treated with 0.1% DMSO. […]

CCc1nc2n(-c3nnc(C(F)F)s3)c3cc(S(=O)(=O)NC4(C)CC4)cc(N4C[C@H](C)N[C@@H](C)C4)c3n2n1 [Compound 065R]
AUC [1]: 9.52 µM·h
Cmax [1]: 1620 nM
MRT inf [1]: 4.39 h
half-life [1]: 2.62 h
Fold activation [2]: 1.45

C[C@H]1CN(c2cc(S(=O)(=O)NC3(C)CC3)cc3c2n2nc(C(F)F)nc2n3-c2nnc(C(F)F)s2)C[C@H](C)N1 [Compound 065S]
AUC [1]: 9.21 µM·h
Cmax [1]: 1340 nM
MRT inf [1]: 4.8 h
half-life [1]: 2.69 h
Fold activation [2]: 1.82

C[C@H]1CN(c2cc(S(=O)(=O)NC3(C)CC3)cc3c2n2nc(C(F)(F)F)nc2n3-c2nnc(C(F)F)s2)C[C@H](C)N1 [Compound 065W]
AUC [1]: 16.4 µM·h
Cmax [1]: 1340 nM
MRT inf [1]: 7.74 h
half-life [1]: 5.28 h
Fold activation [2]: 1.11
